As usually defined, the IC50 is the concentration that gives 50% inhibition.

In one data set the test system is OATP1B1. The settings on record: read-out: OATP1B1 IC50; in vitro data; cited from earlier work.
For data set [1] the following is noted: cited from earlier work; for AUC8 previously reported / C8 previously reported: dosed alone, range; for Mean historical minimum plasma concentration (Cmin): historical data.
The test system of a further data set is CYP3A. The settings on record: oral coadministration of midazolam; cited from earlier work.
In a further data set the test system is CYP3A and OATP1B1. The settings on record: coadministered with atorvastatin; cited from earlier work.
Data set [2] in a line: Plasma BOC and TVR pharmacokinetics when coadministered with MVC. Conditions: coadministered with MVC 150 mg BID. Format: in vivo, human.
Another data set deals with P-gp. Conditions: cited from earlier work.
The next data set deals with HIV-1. Conditions: cited from earlier work.

On to `CC(C)(C)NC(=O)N[C@H](C(=O)N1C[C@H]2[C@@H]([C@H]1C(=O)NC(CC1CCC1)C(=O)C(N)=O)C2(C)C)C(C)(C)C` (some centres unmarked) [BOC, Boceprevir], for which the IC50 in the data set on OATP1B1 was 18 µM. Also, in data set [1], the AUC8 previously reported was 4601 to 7070 ng·h/mL, the C8 previously reported was 88.5 to 111 ng/mL and the “Mean historical minimum plasma concentration (Cmin)” value is 102 ng/mL. Moreover, in the data set with CYP3A, the “Increase in AUC of midazolam” value was 430%. For the same compound, the “Increase in AUC (exposure) of atorvastatin” value with CYP3A and OATP1B1 is listed as 2.30 fold. Further, the “Exposures when coadministered with MVC compared with historical data” value in data set [2] was “consistent with historical data”. The “Increase in AUC of digoxin” value with P-gp is 19%.
With `CCC[C@H](NC(=O)[C@@H]1[C@H]2CCC[C@H]2CN1C(=O)[C@@H](NC(=O)[C@@H](NC(=O)c1cnccn1)C1CCCCC1)C(C)(C)C)C(=O)C(=O)NC1CC1` [TVR, Telaprevir], the IC50 in the data set with OATP1B1 was 2.2 µM. Besides, in data set [1], the AUC8 previously reported was 18157 to 22300 ng·h/mL, the C8 previously reported was 1505 to 2030 ng/mL and the “Mean historical minimum plasma concentration (Cmin)” value is 1802 ng/mL. In the data set on CYP3A, the “Increase in AUC of midazolam” value was 796%. The “Increase in AUC (exposure) of atorvastatin” value in the data set with CYP3A and OATP1B1 is on record as 7.88 fold. Further, the “Exposures when coadministered with MVC compared with historical data” value in data set [2] is on record as “consistent with historical data”. In the data set on P-gp, the “Increase in AUC of digoxin” value is recorded as 85%.
Turning to Maraviroc [MVC], in the data set with HIV-1, the “Cavg exposure at which near maximal virologic efficacy is achieved” value is given as 75–100 ng/mL.

Source of the values: PMC3984012 (Journal of Acquired Immune Deficiency Syndromes (1999), 2014).
